The text below walks through data of US5281616A, “Porphyrin and phthalocyanine antiviral compositions” (priority 1992, dated 1994).

The subject of experiment [1] is reverse transcriptase of avian myeloblastosis virus. As to conditions: 10^-4 M; cited from earlier work.
Experiment [2] concerns the target HIV-1 reverse transcriptase (Human immunodeficiency virus type 1 group M subtype B, UniProt P04585). Kind of experiment: Inhibition of purified HIV-1 reverse transcriptase (cell free). It is filed as biochemical. As to conditions: purified enzyme, one hour at 37° C.; read-out: EC50, inhibition of HIV reverse transcriptase. As to the method: Methodology for Testing Antiviral Drugs for Inhibition of HIV-1 Reverse Transcriptase
Cells and viruses are cultured as described above. […] 12,431-439 (1973). Cocktail, template, compound to be tested and reverse transcriptase are mixed together on ice, then incubated for one hour at 37° C.. The DNA synthesized is acid precipitated and the radioactivity measured, as described by Eriksson, B., et al., Antimicrobial Agents and Chemotherapy 31, 600-604 ([…]).

The next experiment has as its system HIV-1 (strain LAV-1). Kind of experiment: Inhibition of HIV replication in PBM cells (supernatant RT activity). It is filed as cell-based. To be noted: human PBM cells, RT activity in supernatant five days after infection; read-out: EC50, inhibition of HIV replication in PBM cells.
The subject of experiment [3] is reverse transcriptase of Rauscher murine leukemia virus. To be noted: cited from earlier work.

A word on the EC50: it is the concentration at which the effect is half-maximal. For “Hemin, bovine, (chloro protoporphyrin IX Fe(III)) [FePPIXCl]”, the “Inhibition of reverse transcriptase activity (in words)” value in experiment [1] is reported as “not”. Also, the EC50 in experiment [2] is 20.5 µM; with HIV-1 (strain LAV-1), 49.3 µM. The “Concentration inhibiting reverse transcriptase activity” value in experiment [3] is 10^-4 M.
